The target in this test is T1, DNA polymerase subunit gamma-1 (Homo sapiens) (UniProt P54098).
T1 sequence (whole entry): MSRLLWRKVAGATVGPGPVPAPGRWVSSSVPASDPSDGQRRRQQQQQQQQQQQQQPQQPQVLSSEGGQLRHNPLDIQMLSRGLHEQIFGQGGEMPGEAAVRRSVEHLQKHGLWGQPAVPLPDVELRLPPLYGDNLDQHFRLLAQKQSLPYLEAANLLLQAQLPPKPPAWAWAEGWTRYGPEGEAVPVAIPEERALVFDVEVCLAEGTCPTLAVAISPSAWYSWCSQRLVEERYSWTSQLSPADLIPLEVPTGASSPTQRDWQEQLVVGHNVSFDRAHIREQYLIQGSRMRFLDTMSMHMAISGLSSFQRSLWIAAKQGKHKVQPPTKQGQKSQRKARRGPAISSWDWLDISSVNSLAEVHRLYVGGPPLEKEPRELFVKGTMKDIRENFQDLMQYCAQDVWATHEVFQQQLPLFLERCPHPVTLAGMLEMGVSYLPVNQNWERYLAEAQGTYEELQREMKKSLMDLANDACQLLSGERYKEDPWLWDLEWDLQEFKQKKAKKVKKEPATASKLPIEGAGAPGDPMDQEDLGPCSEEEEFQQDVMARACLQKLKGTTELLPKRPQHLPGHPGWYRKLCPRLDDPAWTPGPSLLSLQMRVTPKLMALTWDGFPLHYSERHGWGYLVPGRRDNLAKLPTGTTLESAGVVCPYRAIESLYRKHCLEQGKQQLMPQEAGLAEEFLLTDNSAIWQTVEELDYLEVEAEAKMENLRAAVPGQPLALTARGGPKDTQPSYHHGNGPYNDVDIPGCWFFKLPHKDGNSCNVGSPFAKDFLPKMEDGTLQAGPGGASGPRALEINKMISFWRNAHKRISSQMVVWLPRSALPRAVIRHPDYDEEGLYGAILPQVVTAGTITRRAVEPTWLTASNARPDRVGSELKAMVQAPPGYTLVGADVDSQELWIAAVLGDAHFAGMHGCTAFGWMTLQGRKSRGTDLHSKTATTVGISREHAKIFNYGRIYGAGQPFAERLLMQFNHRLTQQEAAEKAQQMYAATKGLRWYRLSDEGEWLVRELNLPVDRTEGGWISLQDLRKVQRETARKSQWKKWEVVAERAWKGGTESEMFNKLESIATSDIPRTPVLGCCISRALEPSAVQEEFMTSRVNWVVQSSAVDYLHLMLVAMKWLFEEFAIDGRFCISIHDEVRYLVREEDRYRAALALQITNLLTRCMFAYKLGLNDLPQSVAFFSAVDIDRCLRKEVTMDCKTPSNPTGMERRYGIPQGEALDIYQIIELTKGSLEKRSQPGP
Briefly: Substrate activity at human DNA polymerase gamma measured after 4 hrs by electrophoresis based primer extension assay.

Results on one molecule are retold here after ChEMBL document CHEMBL5365447, “Pronucleotides of 2',3'-Dideoxy-2',3'-Didehydrothymidine as Potent Anti-HIV Compounds” (J Med Chem, 2023).

Calls of active or inactive are those of the source. The rule behind the calls is not given here.

As for `CCCCCCCCCCCCCCCCCCP(=O)(OC)OP(=O)(O)OP(=O)(O)OC[C@@H]1C=C[C@H](n2cc(C)c(=O)[nH]c2=O)O1.N.N` (stereo partly specified), the outcome was inactive.
